This note sets out measurements from article PMC6691788, “Design and synthesis of phthalazine-based compounds as potent anticancer agents with potential antiangiogenic activity via VEGFR-2 inhibition” (Journal of Enzyme Inhibition and Medicinal Chemistry, 2019).

Broadly, the inhibition is the share of the control response that was lost under treatment. The IC50 is the concentration at which inhibition is half-maximal. Usually melting point stands for the temperature, or range, at which the solid turns liquid.

One data set deals with T1, VEGFR-2 tyrosine kinase (Homo sapiens, UniProt P35968).
T1 construct: purchased BPS Bioscience 40301
T1 sequence (P35968 20-1356): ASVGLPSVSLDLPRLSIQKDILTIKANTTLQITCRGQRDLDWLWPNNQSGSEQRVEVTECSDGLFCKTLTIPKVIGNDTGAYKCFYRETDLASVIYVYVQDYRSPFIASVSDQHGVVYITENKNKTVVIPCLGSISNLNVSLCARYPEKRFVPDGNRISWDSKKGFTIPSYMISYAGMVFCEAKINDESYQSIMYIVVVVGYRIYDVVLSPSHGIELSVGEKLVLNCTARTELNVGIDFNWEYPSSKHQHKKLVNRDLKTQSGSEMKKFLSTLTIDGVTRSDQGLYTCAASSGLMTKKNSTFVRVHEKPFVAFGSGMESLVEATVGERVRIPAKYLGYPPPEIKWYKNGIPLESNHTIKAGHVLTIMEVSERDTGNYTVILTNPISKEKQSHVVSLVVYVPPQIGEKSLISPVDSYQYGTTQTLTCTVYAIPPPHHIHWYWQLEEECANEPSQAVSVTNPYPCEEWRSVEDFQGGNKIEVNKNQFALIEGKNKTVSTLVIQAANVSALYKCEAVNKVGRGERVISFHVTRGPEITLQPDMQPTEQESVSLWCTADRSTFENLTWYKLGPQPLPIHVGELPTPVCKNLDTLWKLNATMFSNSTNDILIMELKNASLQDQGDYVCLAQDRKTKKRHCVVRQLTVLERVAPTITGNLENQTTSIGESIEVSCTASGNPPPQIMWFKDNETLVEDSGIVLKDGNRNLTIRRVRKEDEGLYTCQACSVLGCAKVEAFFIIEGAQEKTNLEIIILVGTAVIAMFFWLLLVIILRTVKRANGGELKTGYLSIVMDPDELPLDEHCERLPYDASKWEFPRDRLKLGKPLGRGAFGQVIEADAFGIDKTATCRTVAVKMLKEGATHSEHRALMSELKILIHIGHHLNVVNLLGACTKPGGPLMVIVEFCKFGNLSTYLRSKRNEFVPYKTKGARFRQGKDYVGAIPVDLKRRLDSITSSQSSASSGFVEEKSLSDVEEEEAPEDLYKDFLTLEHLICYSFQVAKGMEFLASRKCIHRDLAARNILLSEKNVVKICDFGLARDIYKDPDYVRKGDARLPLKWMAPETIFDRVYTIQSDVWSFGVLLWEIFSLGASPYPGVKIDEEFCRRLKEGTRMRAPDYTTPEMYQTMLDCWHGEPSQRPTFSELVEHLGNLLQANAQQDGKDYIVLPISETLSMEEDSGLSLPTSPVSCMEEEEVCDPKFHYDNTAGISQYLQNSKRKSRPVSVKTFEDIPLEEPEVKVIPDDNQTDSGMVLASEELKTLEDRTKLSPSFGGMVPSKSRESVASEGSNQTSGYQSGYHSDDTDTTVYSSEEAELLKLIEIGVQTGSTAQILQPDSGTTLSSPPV
The experiment in a line: In vitro VEGFR-2 tyrosine kinase assay (BPS Bioscience). The class given is biochemical. To be noted: for inhibition at 10 µM: read-out: VEGFR-2 % inhibition, 10 μM concentration. How it is done:
The VEGFR tyrosine kinase assays were performed at BPS Bioscience (www.bpsbioscience.com). All the synthesised compounds representing the six series were evaluated for their ability to inhibit VEGFR-2 tyrosine kinase at single dose of 10 µM.
The VEGFR tyrosine kinase activity at single dose concentration of 10 μM was carried out by BPS Bioscience (www.bpsbioscience.com). VEGFR (BPS#40301) served as the enzyme source and Poly (Glu, Tyr) sodium salt, (4:1, Glu:Tyr) (Sigma#P7244) served as the standardized substrate & Kinase-Glo Plus Luminescence kinase assay kit (Promega#V3772). The IC50 determination was carried out where quality control testing is routinely performed on each of the targets to insure compliance to acceptable standards. ^33P-ATP was purchased from Perkin Elmer and ADP-Glo^TM was purchased from Promega. All other materials were of standard laboratory grade.
The VEGFR tyrosine kinase activity was performed using Kinase-Glo Plus luminescence kinase assay kit (Promega). It measures kinase activity by quantitating the amount of ATP remaining in solution following a kinase reaction. The luminescent signal from the assay is correlated with the amount of ATP present and is inversely correlated with the amount of kinase activity. The compounds were diluted to 100 μM in 10% DMSO and […] of the dilution was added to a […] reaction so that the final concentration of DMSO is 1% in all of reactions. All of the enzymatic reactions were conducted at 30 °C for 40 min. The 50 μl reaction mixture contains […], pH 7.4, […], 0.1 mg/ml BSA, 0.2 mg/ml Poly (Glu, Tyr) substrate, 10 μM ATP and VEGFR. After the enzymatic reaction, […] of Kinase-GloPlus Luminescence kinase assay solution (Promega) was added to each reaction and incubate the plate for 5 min at room temperature. Luminescence signal was measured using a BioTek Synergy 2 microplate reader. The protein kinase assays used to determine IC50 value were performed using ADP-GloTM assay kit from Promega which measures the generation of ADP by the protein kinase. Generation of ADP by the protein kinase reaction leads to an increase in luminescence signal in the presence of ADP-GloTM assay kit. The assay was started by incubating the reaction mixture in a 96-well plate at 30 °C for 30 min. After the 30 min incubation period, the assay was terminated by the addition of […] of ADP-GloTM Reagent (Promega). The 96 well plate was shaken and then incubated for 40 min at ambient temperature. […] of Kinase detection reagent was added, the 96-well reaction plate was then read using the ADP-Glo Luminescences Protocol on a GloMax plate reader (Promega: Catalog #E7031). Blank control was set up that included all the assay components except the addition of appropriate substrate (replace with equal volume of kinase assay buffer). The corrected activity for each protein kinase target was determined by removing the blank control value.
VEGFR activity assays were performed in duplicate at each concentration. The luminescence data were analyzed using the computer software, Graphpad Prism. The difference between luminescence intensities in the absence of VEGFR (Lut) and in the presence of VEGFR (Luc) was defined as 100% activity (Lut - Luc). […] IC50 determination for inhibitor against VEGFR was estimated by generating a graph of log inhibitor vs normalized response with variable using the Prism software.

Another data set relates to MCF-7. The experiment in a line: In vitro cytotoxic activity, SRB assay. The class given is cell-based. The conditions noted are these: Homo sapiens, MCF7; MCF-7, 48h. The method, then: (§1) In addition, compounds (12a, 12b, 12c, 16b, 16c and 17b) were evaluated against a third cell line (HepG-2) These first two cell lines were selected based on the sensitivity of the previously NCI-tested derivatives towards them amongst the 60 NCI panel. The growth inhibition is expressed as the median growth inhibitory concentration (IC50) which corresponds to the concentration required for 50% inhibition of cell viability and are provided in (Table S6 in supplementary material).
(§2) 5,000 cells in fresh medium were seeded in 96-well microlitre plates and left to attach for 24h. Cells were incubated with the tested compounds at concentration range from 0,1,2.5,5,10 µg/ml and incubation was continued for48h. After 48h treatment,the cells were fixed with 50µl cold 50% trichloroacetic acid (TCA )for 1h at 4 °C. Wells were then washed 5 times with water and stained for 30 min at room temperature with 50µl of 0.4%SRB dissolved in 1% acetic acid. The wells were then washed 4 times with 1% acetic acid. The plates were air dried and the dye was solubilized with 100µl/well of 10mM tris base (pH 10.5) for 5min on a shaker (Orbital Shaker OS 20,Boeco,Germany) at 1600 rpm. The optical density (O.D.)of each well was measured spectrophotometrically at 564 nm with an enzyme linked immunosorbent assay( ELIZA) micraplate reader (Tecan Sunrise,Austria).The mean back ground absorbance was subtracted automatically and mean values for each drug concentration was calculated.
(§3) The percentage of cell survival was calculated as follows:
(§4) Survival fraction =O.D.(treated cells)/O.D.(control cells)
(§5) The IC50 value (the concentration required to produce 50% inhibition of cell growth) was calculated using sigmodial dose response curve-fitting models (GraphPad,Prizm software incorporated). Each concentration was repeated 3 times.
(In SRB staining, fixed cells bind dye roughly in proportion to their protein.)

The test system of the next data set is HCT-116. The experiment in a line: In vitro cytotoxic activity, SRB assay. The class given is cell-based. To be noted: Homo sapiens; HCT-116, 48h. How it is done: as §1, §2, §3, §4, §5
The next data set relates to HepG-2. Kind of data set: In vitro cytotoxic activity, SRB assay. The class given is cell-based. The conditions noted are these: Homo sapiens, HepG2; HepG-2, 48h. How it is done: as §1, §2, §3, §4, §5

Molecules are shown by their SMILES.

Take `Cc1nnc(Nc2ccc(NC(=O)Nc3ccc(Cl)c(C(F)(F)F)c3)cc2)c2ccccc12` [Compound 6f, 1–(4-Chloro-3-(trifluoromethyl)phenyl)-3–(4-(4-methylphthalazin-1-ylamino)phenyl)-urea]: the melting point is 258 to 260 °C. On VEGFR-2 tyrosine kinase, the inhibition at 10 µM turned out to be 32%. Moreover, the IC50 in the data set with MCF-7 turned out to be 3.2 µM. The molecule also yielded an IC50 with HCT-116 of 3.1 µM.
In the same order, the values of `O=C(Nc1ccccc1)Nc1ccc(Nc2nncc3ccccc23)cc1` [Compound 6a, 1-Phenyl-3–(4-(phthalazin-1-ylamino)phenyl)urea] are 145 to 147 °C, 13%, 67.6 µM and 91.2 µM.
Regarding `O=C(Nc1ccc(Nc2nncc3ccccc23)cc1)Nc1ccc(Cl)c(C(F)(F)F)c1` [Compound 6c, 1–(4-Chloro-3-(trifluoromethyl)phenyl)-3–(4-(phthalazin-1-ylamino)phenyl)urea], the melting point is 288 to 291 °C. Further, on VEGFR-2 tyrosine kinase (10 μM ATP/0.2 mg/ml poly-Glu-Tyr), the 50% inhibitory concentration (IC50) is 13.4 µM. Further, the inhibition at 10 µM at VEGFR-2 tyrosine kinase was determined as 70%. In addition, the IC50 in the data set on MCF-7 worked out at 6.2 µM. Also, the IC50 with HCT-116 is 6 µM.
For the molecule `O=C(Nc1ccc(Nc2nncc3ccccc23)cc1)c1ccccc1` [Compound 5a, N-(4-(Phthalazin-1-ylamino)phenyl)benzamide], the melting point is 142 to 144 °C. In addition, the inhibition at 10 µM at VEGFR-2 tyrosine kinase was 4%. The same molecule yielded an IC50 in the data set with MCF-7 greater than 1000 µM. The molecule also had an IC50 in the data set with HCT-116 of 977 µM.
As for `COc1cccc2c1C(=O)c1c(O)c3c(c(O)c1C2=O)C[C@@](O)(C(=O)CO)C[C@@H]3O[C@H]1C[C@H](N)[C@H](O)[C@H](C)O1` [Dox, doxorubicin, reference compound], the values for the IC50 with HepG-2, with MCF-7 and with HCT-116 were 0.5 µM, 0.9 µM and 0.62 µM, respectively.
On to `Cc1nnc(Oc2ccc(NC(=O)Nc3ccc(Cl)c(C(F)(F)F)c3)cc2)c2ccccc12` [Compound 7f, 1–(4-Chloro-3-(trifluoromethyl)phenyl)-3–(4-(4-metyhlphthalazin-1-yloxy)phenyl)urea], for which the melting point lay in the range of 150 to 152 °C. Besides, on VEGFR-2 tyrosine kinase, the inhibition at 10 µM came out at 21%. The molecule also had an IC50 in the data set with MCF-7 of 31 µM. In addition, in the data set on HCT-116, the midpoint of inhibition, the IC50, lay at 49 µM.
The matching figures for `Cc1nnc(N2CCN(C(=O)c3ccco3)CC2)c2ccccc12` [Compound 8j, Furan-2-yl-(4–(4-methylphthalazin-1-yl)piperazin-1-yl)methanone]: 90 to 92 °C, 10%, 479 µM and 479 µM.
Consider `Fc1ccccc1N1CCN(c2nncc3ccccc23)CC1` [Compound 8c, 1–(4-(2-Fluorophenyl)piperazin-1-yl)phthalazine], for which the melting point is 88 to 90 °C. In addition, the inhibition at 10 µM on VEGFR-2 tyrosine kinase turned out to be 9%. The IC50 in the data set on MCF-7 is 32.4 µM. The molecule also gave a half-inhibitory concentration (IC50) in the data set with HCT-116 of 42.7 µM.
As for `O=C(Nc1ccccc1)Nc1ccc(Oc2nncc3ccccc23)cc1` [Compound 7a, 1-Phenyl-3–(4-(phthalazin-1-yloxy)phenyl)urea], the melting point lay within 180 to 182 °C. Also, the inhibition at 10 µM on VEGFR-2 tyrosine kinase stood at 5%.
With `c1ccc(N2CCN(c3nncc4ccccc34)CC2)cc1` [Compound 8b, 1–(4-Phenylpiperazin-1-yl)phthalazine], the melting point was 242 to 244 °C. For the same molecule, the inhibition at 10 µM on VEGFR-2 tyrosine kinase stood at 8%. Further, in the data set on MCF-7, it took 363 µM to reach half-maximal inhibition (IC50). This molecule had an IC50 in the data set on HCT-116 of 550 µM.
The molecule `Cc1nnc(Oc2ccc(NC(=O)Nc3ccccc3)cc2)c2ccccc12` [Compound 7d] returned a melting point of 174 to 176 °C. Moreover, the inhibition at 10 µM on VEGFR-2 tyrosine kinase was 10%. Also, it took 7.8 µM to reach half-maximal inhibition in the data set with MCF-7 (IC50). This molecule also returned a 50% inhibitory concentration (IC50) in the data set with HCT-116 of 7.2 µM.
Turning to `Cc1nnc(Nc2ccc(NC(=O)Nc3ccccc3)cc2)c2ccccc12` [Compound 6d, 1–(4-(4-Metyhlphthalazin-1-ylamino)phenyl)3-phenylurea], the melting point is 284 to 286 °C. Moreover, the inhibition at 10 µM on VEGFR-2 tyrosine kinase is 15%. Also, half-maximal inhibition in the data set with MCF-7 (IC50) required 67.6 µM. Half-maximal inhibition in the data set on HCT-116 (IC50) was put at 57.5 µM.
`Cc1cccc(NCc2nnc(Nc3ccc(Cl)cc3)c3ccccc23)c1` [Compound 16c, N-(4-Chlorophenyl)-4-((m-tolylamino)methyl)phthalazin-1-amine] gave a melting point of 130 to 132 °C. Besides, the inhibition at 10 µM at VEGFR-2 tyrosine kinase is 19%. In the data set with HepG-2, this molecule returned an IC50 greater than 1000 µM. In the data set with MCF-7, this molecule returned an IC50 greater than 1000 µM. The molecule further came in with an IC50 in the data set with HCT-116 of 257 µM.
`Cc1cccc(OCc2nnc(Nc3ccc(Cl)cc3)c3ccccc23)c1` [Compound 17b, N-(4-Chlorophenyl)-4-(m-tolyloxymethyl)phthalazin-1-amine] showed a melting point of 193 to 195 °C. Moreover, on VEGFR-2 tyrosine kinase, the inhibition at 10 µM was 15%. Further, the IC50 with HepG-2 was 39 µM. Also, half-maximal inhibition in the data set on MCF-7 (IC50) required 13.5 µM. In the data set on HCT-116, the IC50 was 38 µM.
Turning to `O=C(Nc1ccccc1)Nc1ccc(Nc2nnc(Cl)c3ccccc23)cc1` [Compound 12a, 1–(4-(4Chlorophthalazin-1-ylamino)phenyl)-3-phenylurea], the melting point was 225 to 227 °C. Moreover, the inhibition at 10 µM at VEGFR-2 tyrosine kinase was found to be 26%. This molecule also returned an IC50 in the data set with HepG-2 greater than 1000 µM. In the data set on MCF-7, this molecule displayed an IC50 of 81.3 µM. The same molecule displayed an IC50 in the data set on HCT-116 of 479 µM.
As for `Cc1nnc(Nc2ccc(NC(=O)c3ccccc3)cc2)c2ccccc12` [Compound 5c, N-(4–(4-Methylphthalazin-1-ylamino)phenyl)benzamide], the melting point lay in the range of 283 to 285 °C. The inhibition at 10 µM on VEGFR-2 tyrosine kinase is 12%. Besides, 22.9 µM corresponded to half-maximal inhibition in the data set on MCF-7 (IC50). This molecule also gave an IC50 in the data set with HCT-116 of 15 µM.
`O=C(Nc1ccc(Oc2nncc3ccccc23)cc1)Nc1ccc(Cl)c(C(F)(F)F)c1` [Compound 7c, 1–(4-Chloro-3-(trifluoromethyl)phenyl)-3–(4-(phthalazin-1-yloxy)phenyl)urea] showed a melting point of 158 to 160 °C. In addition, the inhibition at 10 µM at VEGFR-2 tyrosine kinase was determined as 47%. The molecule also gave an IC50 in the data set on MCF-7 of 2.5 µM. In addition, the IC50 in the data set on HCT-116 stood at 2.6 µM.
As for `O=C(c1ccco1)N1CCN(c2nncc3ccccc23)CC1` [Compound 8e, Furan-2-yl-(4-(phthalazin-1-yl)piperazin-1-yl)methanone], the melting point was 90 to 92 °C. For the same molecule, the inhibition at 10 µM at VEGFR-2 tyrosine kinase is 9%. This molecule gave an IC50 in the data set with MCF-7 of 190 µM. In addition, the half-maximal inhibitory concentration (IC50) with HCT-116 is 513 µM.
